Consider 27 molecules from patent US10294212B2 (CURADEV PHARMA PRIVATE LTD., priority 2013, dated 2019).

Structures are written as SMILES. Where a name gives a salt, the structure may show the parent alone. Where only a bound is given, the exact number is not on record here.

The target in test [1] is Human indoleamine 2,3-dioxygenase1 (hIDO1) (Homo sapiens (Human), UniProt P14902). As to the kind of experiment: In-vitro IDO1 enzyme assay (conversion of L-tryptophan to KYN). Type of test: biochemical. The settings on record: read-out: IC50 (IDO1) Enz. The text has this:
Human indoleamine 2,3-dioxygenasel (hIDO1) catalyzes the oxidative cleavage of the pyrrole ring of the indole nucleus of tryptophan to yield N-formylkynurenine which can be converted to kynurenine (KYN) by deformylation. hIDO1 with an N-terminal His tag, expressed and purified from E. coli cells was procured from either Enzo LifeScienccs, NY, USA). Unless otherwise stated, all materials were procured from Sigma Aldrich, Mo., USA.
The assay monitoring the conversion of L-tryptophan to KYN was carried out as follows. hIDO1 (10 nM) was incubated with tryptophan (30 μM) in the presence of ascorbic acid (20 mM), methylene blue (10 μM) and catalase (100 μg/mL) in potassium phosphate buffer (50 mM; pH 6.5) at 37C for 30 min. The reaction was terminated with 30% trichloroacetic acid (TCA) and further incubated at 65C for 15 min to fully convert N-formylkynurenine to KYN. The reaction mixture was then centrifuged to remove sediments and the KYN in the supernatant was estimated by UV-visible absorption spectroscopy at 360 nm using a Waters HPLC system fitted with a C-18 column or by LC/MS/MS. See, Sono, 1980, J. Biol. Chem., 255:1339-1345, which is herein incorporated by reference.
Percent inhibition at each concentration of test compounds was determined by estimating the decrease in KYN with reference to the reaction control with 1% DMSO vehicle. Data were analyzed using nonlinear regression to generate IC50 values using Graph Pad Prism® 5.

Test [2] concerns the target Human TDO (hTDO)-transfected CHO-K1 cells (Homo sapiens (Human), UniProt P48775). As to the kind of experiment: CHO-K1 cell based TDO assay. The note with it: hTDO cellular assay. The protocol: Human TDO (hTDO)-transfected CHO-K1 cells were used to identify test compounds that inhibit TDO activity and reduce Kynurenine production. CHO-K1 cells (ATCC) were cultured in DMEM supplemented with sodium bicarbonate (2.1 g/L), HEPES (4.1 g/L), L-glutamine (2 mM), non-essential amino acid (84 mg/L) and fetal bovine serum (10%) and maintained at 95% humidity and 5% CO2 in a 37° C. incubator. The TDO gene (TDO2) (Accession number NM_005651.1) was purchased from Origene (USA) and stably expressed in CHO-Kl cells using the expression vector pcDNA4/Myc-HisB Hygro (Life Technologies, USA). TDO-expressing clones were identified based on the kynurenine production by the cells. Expanded clones were used for assay as described below. Unless otherwise stated, all materials were procured from Sigma.
hTDO transfected CHO-K1 cells (0.05 million/well) were seeded in a 96-well plate and maintained overnight in DMEM containing 10% FBS (200 μL) at 95% humidity and 5% CO2 in a 37° C. incubator. The following day, cells were washed and incubated with test compounds (typically 31 μM to 10 nM, final volume 150 μL) in Hanks Balanced Salt Solution (HBSS) containing 80 μM L-tryptophan for 2 hours. Supernatant (150 μL) from the cells was treated with 30% TCA ([…]) to precipitate proteins. Supernatants were further incubated at 65° C. for 15 min to convert N-formylkynurenine to kynurenine. KYN in the supernatant was measured by LC/MS/MS using an API4000 mass spectrometer (Applied Biosystems) coupled to a Shimadzu Prominence LC system fitted with a C18 column.
Percent inhibition of the test compounds was determined by measuring the decrease in KYN as compared to the reaction control (DMSO vehicle). IC50 values were calculated using Graph Pad Prism® 5 as described above.

Chain of Human TDO (hTDO)-transfected CHO-K1 cells (P48775 whole entry): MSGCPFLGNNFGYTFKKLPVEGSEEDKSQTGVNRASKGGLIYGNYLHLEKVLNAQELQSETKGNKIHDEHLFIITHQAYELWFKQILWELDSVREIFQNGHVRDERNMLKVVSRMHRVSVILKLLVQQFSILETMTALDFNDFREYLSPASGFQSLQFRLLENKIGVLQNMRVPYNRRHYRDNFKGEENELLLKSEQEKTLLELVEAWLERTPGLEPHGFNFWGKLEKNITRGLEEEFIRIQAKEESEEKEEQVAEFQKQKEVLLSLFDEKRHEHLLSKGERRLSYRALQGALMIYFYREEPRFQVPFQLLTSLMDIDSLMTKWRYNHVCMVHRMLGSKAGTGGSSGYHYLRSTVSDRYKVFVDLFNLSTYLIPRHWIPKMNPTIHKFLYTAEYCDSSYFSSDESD
Chain of Human indoleamine 2,3-dioxygenase1 (hIDO1) (P14902 whole entry): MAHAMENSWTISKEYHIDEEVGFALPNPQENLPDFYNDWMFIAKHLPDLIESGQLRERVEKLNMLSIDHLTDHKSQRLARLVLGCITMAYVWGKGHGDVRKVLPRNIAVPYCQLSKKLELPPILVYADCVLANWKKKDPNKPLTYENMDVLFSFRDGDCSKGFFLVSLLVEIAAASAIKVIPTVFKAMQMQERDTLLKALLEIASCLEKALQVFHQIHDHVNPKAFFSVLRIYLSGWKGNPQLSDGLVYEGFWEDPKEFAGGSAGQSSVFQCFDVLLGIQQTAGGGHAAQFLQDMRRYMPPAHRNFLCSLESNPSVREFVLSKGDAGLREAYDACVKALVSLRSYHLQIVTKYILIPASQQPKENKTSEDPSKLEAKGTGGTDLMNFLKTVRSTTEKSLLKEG

As for `Nc1oc2cnccc2c1Nc1cccc2c1CCCC2` [Compound 63, N^3-(5,6,7,8-Tetrahydronaphthalen-1-yl)furo[2,3-c]pyridine-2,3-diamine], the IC50 in test [1] was over 1000 nM; in test [2], over 2000 nM.

Turning to `Nc1oc2cnccc2c1Nc1cccc(Cc2ccccc2)c1` [Compound 75, N^3-(3-Benzylphenyl)furo[2,3-c]pyridine-2,3-diamine], the IC50 in test [1] was over 1000 nM; in test [2] it was over 2000 nM.

For the molecule `Nc1oc2cnccc2c1Nc1cccc(C2CCCCC2)c1` [Compound 88, N^3-(3-Cyclohexylphenyl)furo[2,3-c]pyridine-2,3-diamine], the IC50 was over 1000 nM in test [1] and 500 to 2000 nM in test [2].

Take `Nc1oc2cnccc2c1Nc1cccc(CC2CCC2)c1` [Compound 89, N^3-(3-(Cyclobutylmethyl)phenyl)furo[2,3-c]pyridine-2,3-diamine]: the IC50 in test [1] is over 1000 nM; in test [2] it was over 2000 nM.

For the molecule `CC(C)Oc1cc2c(Nc3ccc(F)c(Cl)c3)c(N)oc2c(-c2ccccc2)n1` [Compound 107, N^3-(3-Chloro-4-fluorophenyl)-5-isopropoxy-7-phenylfuro[2,3-c]pyridine-2,3-diamine], the IC50 in test [1] was over 1000 nM; in test [2] it was over 2000 nM.

As to `Nc1sc2cnccc2c1Nc1ccc(F)c(Cl)c1` [Compound 121, N^3-(3-chloro-4-fluorophenyl)thieno[2,3-c]pyridine-2,3-diamine], the IC50 in test [1] was over 1000 nM; in test [2], over 2000 nM.

Take `Nc1sc2ccccc2c1Sc1cccc(Cl)c1` [Compound 122, 3-((3-Chlorophenyl)thio)benzo[b]thiophen-2-amine]: the IC50 in test [1] was over 1000 nM; in test [2], over 2000 nM.

On to `Nc1sc2ccccc2c1Oc1cccc(Cl)c1` [Compound 127, 3-(3-Chlorophenoxy)benzo[b]thiophen-2-amine hydrochloride], for which the figures for the half-inhibitory concentration (IC50) in test [1] and in test [2] were over 1000 nM and over 2000 nM, respectively.

Turning to `Nc1sc2ccccc2c1Nc1ccc(F)c(C(F)(F)F)c1` [Compound 128, N^3-(4-Fluoro-3-(trifluoromethyl)phenyl)benzo[b]thiophene-2,3-diamine], the figures for the IC50 in test [1] and in test [2] were under 200 nM and over 2000 nM, respectively.

With `[NH]c1sc2ccc(Cl)cc2c1Nc1ccc(F)c(C(F)(F)F)c1` [Compound 129, hydrochloride], the IC50 was 200 to 1000 nM in test [1] and over 2000 nM in test [2].

For the molecule `CN(c1ccccc1)c1c(N)sc2ccccc12` [Compound 135, N^3-Methyl-N^3-phenylbenzo[b]thiophene-2,3-diamine hydrochloride], the IC50 in test [1] was over 1000 nM; in test [2], over 2000 nM.

On to `N#Cc1ccc2c(Nc3ccc(F)c(Cl)c3)c(N)sc2c1` [Compound 136, 2-Amino-3-((3-chloro-4-fluorophenyl)amino)benzo[b]thiophene-6-carbonitrile], for which the IC50 was over 1000 nM in test [1] and over 2000 nM in test [2].

For the molecule `CCOC(=O)Nc1oc2cnccc2c1N(C(=O)OCC)c1ccc(F)c(Cl)c1` [Compound 142, Ethyl (3-chloro-4-fluorophenyl)(2-((ethoxycarbonyl)amino)furo-[2,3-c]pyridin-3-yl)carbamate], the IC50 was over 1000 nM in test [1] and over 2000 nM in test [2].

On to `COC(=O)Nc1oc2cnccc2c1Nc1ccc(F)c(Cl)c1` [Compound 143, Methyl (3-((3-chloro-4-fluorophenyl)amino)furo[2,3-c]pyridin-2-yl)carbamate], for which the IC50 in test [1] is over 1000 nM; in test [2], over 2000 nM.

For `COC(=O)Nc1oc2cnccc2c1N(C(=O)OC)c1ccc(F)c(Cl)c1` [Compound 144, Methyl (3-chloro-4-fluorophenyl)(2-((methoxycarbonyl)amino)furo[2,3-c]pyridin-3-yl)carbamate], the figures for the IC50 in test [1] and in test [2] were over 1000 nM and over 2000 nM, respectively.

On to `CCOC(=O)Nc1oc2c(C#N)nccc2c1N(C(=O)OCC)c1ccc(F)c(Cl)c1` [Compound 145, Ethyl (3-chloro-4-fluorophenyl)(7-cyano-2-((ethoxycarbonyl)amino)furo[2,3-c]pyridin-3-yl)carbamate], for which the IC50 in test [1] was over 1000 nM; in test [2] it was over 2000 nM.

Consider `CCOC(=O)Nc1oc2c(-c3cccc(C#N)c3)nccc2c1N(C(=O)OCC)c1ccc(F)c(Cl)c1` [Compound 146, Ethyl (3-chloro-4-fluorophenyl)(7-(3-cyanophenyl)-2-((ethoxycarbonyl)amino)furo[2,3-c]pyridin-3-yl)carbamate], for which the IC50 in test [1] was over 1000 nM; in test [2], over 2000 nM.

Take `N#Cc1nccc2c(Nc3ccc(F)c(Cl)c3)c(NC(=O)OCc3ccccc3)oc12` [Compound 155, Benzyl (3-((3-chloro-4-fluorophenyl)amino)-7-cyanofuro[2,3-c]pyridin-2-yl)carbamate]: the IC50 in test [1] was over 1000 nM; in test [2] it was 500 to 2000 nM.

As to `CCOC(=O)Nc1oc2c(I)nccc2c1N(C(=O)OCC)c1ccc(F)c(Cl)c1` [Compound 156, Ethyl (3-chloro-4-fluorophenyl)(2-((ethoxycarbonyl)amino)-7-iodofuro[2,3-c]pyridin-3-yl)carbamate], the IC50 in test [1] was over 1000 nM; in test [2], over 2000 nM.

`CCOC(=O)Nc1oc2c(-c3ccc(C(N)=O)cc3)nccc2c1Nc1ccc(F)c(Cl)c1` [Compound 157, Ethyl (7-(4-carbamoylphenyl)-3-((3-chloro-4-fluorophenyl)amino)furo[2,3-c]pyridin-2-yl)carbamate]: the IC50 was over 1000 nM in test [1] and over 2000 nM in test [2].

On to `CCOC(=O)Nc1oc2c(C#Cc3ccc(C(N)=O)cc3)nccc2c1N(C(=O)OCC)c1ccc(F)c(Cl)c1` [Compound 160, Ethyl (7-((4-carbamoylphenyl)ethynyl)-2-((ethoxycarbonyl)amino)furo[2,3-c]pyridin-3-yl)(3-chloro-4-fluorophenyl)carbamate], for which the IC50 in test [1] was over 1000 nM; in test [2], over 2000 nM.

Consider `CCOC(=O)Nc1oc2c(Br)nccc2c1N(C(=O)OCC)c1ccc(F)c(Cl)c1` [Compound 161, Ethyl (7-bromo-2-((ethoxycarbonyl)amino)furo[2,3-c]pyridin-3-yl)(3-chloro-4-fluorophenyl)carbamate], for which the IC50 in test [1] is over 1000 nM; in test [2] it was over 2000 nM.

As to `CCOC(=O)Nc1oc2c(-c3ccccc3)nccc2c1Nc1ccc(F)c(Cl)c1` [Compound 162, Ethyl (3-((3-chloro-4-fluorophenyl)amino)-7-phenylfuro[2,3-c]pyridin-2-yl)carbamate], the IC50 in test [1] was over 1000 nM; in test [2] it was over 2000 nM.

Regarding `CCOC(=O)Nc1oc2c(-c3cc(C)nc(C)c3)nccc2c1Nc1ccc(F)c(Cl)c1` [Compound 163, Ethyl (3-((3-chloro-4-fluorophenyl)amino)-7-(2,6-dimethylpyridin-4-yl)furo[2,3-c]pyridin-2-yl)carbamate], the IC50 in test [1] is over 1000 nM; in test [2], over 2000 nM.

Turning to `CCOC(=O)Nc1oc2c(-c3cc(C)nc(C)c3)nccc2c1N(C(=O)OCC)c1ccc(F)c(Cl)c1` [Compound 165, Ethyl (3-chloro-4-fluorophenyl)(7-(2,6-dimethylpyridin-4-yl)-2-((ethoxycarbonyl)amino)furo[2,3-c]pyridin-3-yl)carbamate], the IC50 in test [1] was over 1000 nM; in test [2], over 2000 nM.

Take `CCOC(=O)Nc1oc2c(-c3ccncc3)nccc2c1N(C(=O)OCC)c1ccc(F)c(C(F)(F)F)c1` [Compound 193, Ethyl (2-((ethoxycarbonyl)amino)-7-(pyridin-4-yl)furo[2,3-c]pyridin-3-yl)(4-fluoro-3-(trifluoromethyl)phenyl)carbamate]: the IC50 was over 1000 nM in test [1] and over 2000 nM in test [2].

For the molecule `CCOC(=O)Nc1oc2c(C#N)nccc2c1N(C(=O)OCC)c1ccc(F)c(C(F)(F)F)c1` [Compound 194, Ethyl (7-cyano-2-((ethoxycarbonyl)amino)furo[2,3-c]pyridin-3-yl)(4-fluoro-3-(trifluoromethyl)phenyl)carbamate], the IC50 is over 1000 nM in test [1] and over 2000 nM in test [2].
